Values joined by “and” are separate entries in the source; they are usually repeats but may differ in a detail not shown here. Identical values can stand only once. “Also recorded” adds a separate entry of the source. Like-named read-outs stand apart in the source and are kept apart here. Each block holds one compound with its values, some of them ahead of it.
Assays:
[1] = molecular target: T1, recombinant vitamin D receptor (Rattus norvegicus, UniProt P13053); test: Vitamin D receptor binding (competitive, 3H-1,25(OH)2D3)
T1 construct: Fun-length recombinant rat receptor was expressed in E. coli; histidine tag (C); made in house; host or cells: E. coli BL21(DE3) Codon Plus RIL
T1 sequence (P13053 1-423): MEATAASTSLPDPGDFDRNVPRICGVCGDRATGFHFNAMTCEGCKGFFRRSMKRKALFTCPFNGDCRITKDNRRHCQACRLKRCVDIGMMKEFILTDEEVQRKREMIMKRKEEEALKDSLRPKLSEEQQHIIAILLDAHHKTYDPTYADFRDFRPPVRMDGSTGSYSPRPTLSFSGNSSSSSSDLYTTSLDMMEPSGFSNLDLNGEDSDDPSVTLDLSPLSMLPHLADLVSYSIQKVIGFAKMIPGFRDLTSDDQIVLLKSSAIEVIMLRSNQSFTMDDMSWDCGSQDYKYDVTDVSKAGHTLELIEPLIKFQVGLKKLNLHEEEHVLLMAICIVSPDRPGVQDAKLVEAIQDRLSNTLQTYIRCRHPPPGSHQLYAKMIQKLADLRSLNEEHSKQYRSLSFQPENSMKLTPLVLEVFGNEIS
Description: Fun-length recombinant rat receptor was expressed in E. coli BL21(DE3) Codon Plus RIL cells and purified to homogeneity using two different column chromatography systems. The first system was a nickel affinity resin that utilizes the C-terminal histidine tag on this protein. The protein that was eluted from this resin was further purified using ion exchange chromatography (S-Sepharose Fast How). Aliquots of the purified protein were quick frozen in liquid nitrogen and stored at −80° C. until use. For use in binding assays, the protein was diluted in TEDK50 (50 mM […], 1.5 mM EDTA, pH 7.4, 5 mM DTT, 150 mM KCl) with 0.1% Chaps detergent. The receptor protein and ligand concentration was optimized such that no more than 20% of the added radiolabeled ligand was bound to the receptor.
Unlabeled ligands were dissolved in ethanol and the concentrations determined using UV spectrophotometry (1,25(OH)2D3: molar extinction coefficient=18,200 and λmax=265 nm; Analogs: molar extinction coefficient=42,000 and λmax=252 nm). Radiolabeled ligand (^3H-1,25(OH)2D3, ˜159 Ci/mmole) was added in ethanol at a final concentration of 1 nM.
Radiolabeled and unlabeled ligands were added to […] of the diluted protein at a final ethanol concentration of ≦10%, mixed and incubated overnight on ice to reach binding equilibrium. […] Total binding was determined from the tubes containing only radiolabeled ligand.

Sprague-Dawley rats [2] = test: Bone calcium mobilization (serum calcium); assay type: in vivo, rat; conditions: for Bone calcium mobilization (change from vehicle, mg/dL): vehicle subtracted
Description: (§1) Male, weanling Sprague-Dawley rats were placed on Diet 11 (0.47% Ca) diet+AEK oil for one week followed by Diet 11 (0.02% Ca)+AEK oil for 3 weeks. The rats were then switched to a diet containing 0.47% Ca for one week followed by two weeks on a diet containing 0.02% Ca. Dose administration began during the last week on 0.02% calcium diet. Four consecutive intraperitoneal doses were given approximately 24 hours apart. Twenty-four hours after the last dose, blood was collected from the severed neck and the concentration of serum calcium determined as a measure of bone calcium mobilization. The first 10 cm of the intestine was also collected for intestinal calcium transport analysis using the everted gut sac method.

Sprague-Dawley rats [3] = test: Intestinal calcium transport (everted gut sac method); assay type: in vivo, rat; conditions: for Intestinal calcium transport (change from vehicle, serosal/mucosal ratio): vehicle subtracted
Description: as §1

HL-60 cells = test: HL-60 differentiation (nitro blue tetrazolium reduction); assay type: cell-based, human; conditions: FIG. 2
Description: The study drugs were dissolved in ethanol and the concentrations determined using UV spectrophotometry. Serial dilutions were prepared so that a range of drug concentrations could be tested without changing the final concentration of ethanol ([…]) present in the cell cultures.
Human promyelocytic leukemia (HL60) cells were grown in RPMI-1640 medium containing 10% fetal bovine serum. The cells were incubated at 37° C. in the presence of 5% CO2.
HL60 cells were plated at 1.2×10^5 cells/ml. Eighteen hours after plating, cells in duplicate were treated with drug. Four days later, the cells were harvested and a nitro blue tetrazolium reduction assay was performed (Collins et al., 1979; J. Exp. Med. 149:969-974). The percentage of differentiated cells was determined by counting a total of 200 cells and recording the number that contained intracellular black-blue formazan deposits. Verification of differentiation to monocytic cells was determined by measuring phagocytic activity (data not shown).

[4] = tested on: 24-hydroxylase (24OHase) gene promoter; test: In vitro transcription assay (24-hydroxylase promoter-luciferase in ROS 17/2.8 bone cells); assay type: cell-based; conditions: FIG. 3
Description: Transcription activity was measured in ROS 17/2.8 (bone) cells that were stably transfected with a 24-hydroxylase (24OHase) gene promoter upstream of a luciferase reporter gene (Arbour et al., 1998). Cells were given a range of doses. Sixteen hours after dosing the cells were harvested and luciferase activities were measured using a luminometer. RLU=relative luciferase units.

Sprague-Dawley rats [5] = conditions: cited from earlier work; for Intestinal calcium transport (change from vehicle, serosal/mucosal ratio): as reported by Grzywacz et al. 2007
Sprague-Dawley rats [6] = conditions: cited from earlier work; for Bone calcium mobilization (change from vehicle, mg/dL): as reported by Grzywacz et al. 2007
[7] = 260 pmol dose, data of Grzywacz et al. 2007

Binding to the nuclear vitamin D receptor compared with 1,25(OH)2D3 (in words) ([1]; FIG. 1): same affinity as 1,25(OH)2D3
Structure (SMILES): C=C1[C@H](O)CC(=C/C=C2\CCC[C@@]3(C)C2CCC3[C@@H](C)CCCCC)C[C@H]1O (stereo in doubt) [26N, 2-methylene-19,26-nor-(20S)-1α-hydroxyvitamin D3]
Binding to the nuclear vitamin D receptor compared with 1,25(OH)2D3 (in words) ([1]; FIG. 1, listed as 2-Methylene-19,26-nor-(20S)-1α-hydroxyvitamin D3): approximately equally effective as 1,25-(OH)2D3
Bone calcium mobilization (calcemic) activity, in words (Sprague-Dawley rats [2]; 260 pmol dose): essentially no calcemic activity
Bone calcium mobilization activity, in words (Sprague-Dawley rats [2]; 7020 pmol): little bone calcium mobilization activity
Times less active than 1,25-(OH)2D3 on bone calcium mobilization (Sprague-Dawley rats [2]; as shown at the dose of 7020 pmol, FIG. 4B): ~30 times
Calcemic activity (bone calcium mobilization), in words (Sprague-Dawley rats [2]; overall, FIGS. 4A, 4B): very low
Times less potent than 1,25(OH)2D3 in releasing bone calcium stores (Sprague-Dawley rats [2]; rat, FIGS. 4A and 4B): approximately 30 times
Bone calcium mobilization (change from vehicle, mg/dL) (Sprague-Dawley rats [2]; rat, dose level 260 pmol, four intraperitoneal doses): -0.1 mg/dL
Bone calcium mobilization (change from vehicle, mg/dL) (Sprague-Dawley rats [2]; rat, dose level 7020 pmol): 0.6 mg/dL and 0.8 mg/dL
Bone calcium mobilization (change from vehicle, mg/dL) (Sprague-Dawley rats [2]; rat, dose level 35100 pmol): 4.0 mg/dL
Intestinal calcium transport (calcemic) activity, in words (Sprague-Dawley rats [3]; 260 pmol dose): essentially no calcemic activity
Calcemic activity (intestinal calcium transport), in words (Sprague-Dawley rats [3]; overall, FIGS. 5A, 5B): very low; also recorded: noticeably less active than 1,25-(OH)2D3
Times less potent than 1,25(OH)2D3 in promoting active calcium transport in the rat gut (Sprague-Dawley rats [3]; rat, FIGS. 5A and 5B): at least 10 times
Intestinal calcium transport (change from vehicle, serosal/mucosal ratio) (Sprague-Dawley rats [3]; rat, dose level 260 pmol): 0.1 serosal/mucosal ratio
Intestinal calcium transport (change from vehicle, serosal/mucosal ratio) (Sprague-Dawley rats [3]; rat, dose level 7020 pmol): 8.7 serosal/mucosal ratio and 7.2 serosal/mucosal ratio
Intestinal calcium transport (change from vehicle, serosal/mucosal ratio) (Sprague-Dawley rats [3]; rat, dose level 35100 pmol): 4.6 serosal/mucosal ratio
Potency in causing differentiation of HL-60 cells into monocytes compared with 1,25(OH)2D3 (in words) (HL-60 cells): same potency as 1,25(OH)2D3
Potency in causing differentiation of HL-60 cells into monocytes compared with 1,25(OH)2D3 (in words) (HL-60 cells; listed as 2-Methylene-19,26-nor-(20S)-1α-hydroxyvitamin D3): same potency as 1,25-(OH)2D3
Potency in increasing transcription of the 24-hydroxylase gene compared with 1,25(OH)2D3 (in words) ([4]; ROS 17/2.8 bone cells): about one log less potent than 1,25(OH)2D3
Times less potent than 1,25-(OH)2D3 in stimulating 24-OHase gene expression ([4]; bone cells): about 10 times

Structure (SMILES): C=C1[C@H](O)CC(=C/C=C2\CCC[C@]3(C)[C@@H]([C@@H](C)CCCC(C)C)CC[C@@H]23)C[C@H]1O [26Me, 2-methylene-19-nor-(20S)-1α-hydroxyvitamin D3]
Bone calcemic activity as multiple of that of 26N (Sprague-Dawley rats [2]; at 2340 pmol versus 26N at the higher dose of 7020 pmol): ~10 times
Intestinal calcium transport activity, in words (Sprague-Dawley rats [5]; [7]): significant activity
Intestinal calcium transport (change from vehicle, serosal/mucosal ratio) (Sprague-Dawley rats [5]; dose level 87 pmol): 6.6 serosal/mucosal ratio
Intestinal calcium transport (change from vehicle, serosal/mucosal ratio) (Sprague-Dawley rats [5]; dose level 260 pmol): 5.3 serosal/mucosal ratio
Intestinal calcium transport (change from vehicle, serosal/mucosal ratio) (Sprague-Dawley rats [5]; dose level 780 pmol): 2.3 serosal/mucosal ratio
Intestinal calcium transport (change from vehicle, serosal/mucosal ratio) (Sprague-Dawley rats [5]; dose level 2340 pmol): 5.4 serosal/mucosal ratio
Bone calcium mobilization activity, in words (Sprague-Dawley rats [6]; [7]): significant activity
Bone calcium mobilization (change from vehicle, mg/dL) (Sprague-Dawley rats [6]; dose level 87 pmol): 2.0 mg/dL
Bone calcium mobilization (change from vehicle, mg/dL) (Sprague-Dawley rats [6]; dose level 260 pmol): 4.0 mg/dL
Bone calcium mobilization (change from vehicle, mg/dL) (Sprague-Dawley rats [6]; dose level 780 pmol): 5.3 mg/dL
Bone calcium mobilization (change from vehicle, mg/dL) (Sprague-Dawley rats [6]; dose level 2340 pmol): 5.6 mg/dL

Source: patent US20110294764A1, “2-METHYLENE-19,26-NOR-(20S)-1alpha-HYDROXYVITAMIN D3” (priority 2009, published 2011)
